Source: publication PMC8795149, “Characterization of a novel non-steroidal glucocorticoid receptor agonist optimized for topical treatment” (Scientific Reports, 2022)

How the values were obtained:
[1] = test system: FKBP5 mRNA (GR target engagement); assay: Human skin explant, FKBP5 gene expression; format: cell-based; conditions: human skin explants; for FKBP5 Emax / FKBP5 Relative ED50 (API concentration in dosing solution): topical, 24 h; for FKBP5 Relative ED50 (API concentration in dosing solution): weighted geometric mean ± SD
Experimental: NativeSkin models (NS002) were purchased from Genoskin, France. Human skin samples from abdominal reduction surgery were obtained by Genoskin from donors upon written informed consent. Full ethical approval for the study protocol was obtained from the French ethical research committee (Comité de Protection des Personnes), and authorization was given by the French Ministry of Research. The study was conducted according to the Declaration of Helsinki. 8 mm punch biopsies were excised and embedded in a fibrin-based matrix in transwells and a silicone ring was firmly attached to the surface covering the outer edge of the skin biopsy to prevent lateral diffusion of topically applied formulations. Skin models were cultured in a defined hydrocortisone- and serum-free medium provided by Genoskin.
LEO 134310 and reference glucocorticoids were dissolved in propylene carbonate and tested at 4 concentrations in five- or tenfold titrations. Compounds were applied in duplicates or triplicates on the skin surface (0.5 cm^2) in a volume of 2 µL and incubated for 24 h. Vehicle and untreated samples were included for basal level of expression.
RNA was extracted and qPCR was performed using TaqMan gene expression assays (FKBP5-Hs01561006_m1, TSC22D3 (GILZ)-Hs00608272_m1, TXNIP-Hs01006900_g1, ACTB-Hs99999903_m1, PPIA-Hs99999904_m1, GAPDH-Hs99999905_m1). Gene expression of FKBP5,TSC22D3 (GILZ), and TXNIP was normalized to the geometric mean of the reference genes ACTB, PPIA and GAPDH.
Doses were expressed as compound (API) concentrations (µg/mL) in the applied formulations. Relative upregulation of FKBP5 was estimated as − fold to vehicle treated control. Effective doses (Emax and ED50) were determined from a sigmoid Emax model in Phoenix64 version 8.0, Pharsight, Certara. Mean values and standard deviation of Emax and ED50 were calculated by weighing individual experiments based on the intra- and inter-experiment variability.

[2] = target: T1, GR (Homo sapiens, UniProt P04150); assay: Reversal of GR agonist-mediated suppression of cytokine release from LPS-stimulated PBMC by RU486; format: cell-based; set-up: endogenous in cells; conditions: 100 nM agonist
T1 sequence (P04150 1-777): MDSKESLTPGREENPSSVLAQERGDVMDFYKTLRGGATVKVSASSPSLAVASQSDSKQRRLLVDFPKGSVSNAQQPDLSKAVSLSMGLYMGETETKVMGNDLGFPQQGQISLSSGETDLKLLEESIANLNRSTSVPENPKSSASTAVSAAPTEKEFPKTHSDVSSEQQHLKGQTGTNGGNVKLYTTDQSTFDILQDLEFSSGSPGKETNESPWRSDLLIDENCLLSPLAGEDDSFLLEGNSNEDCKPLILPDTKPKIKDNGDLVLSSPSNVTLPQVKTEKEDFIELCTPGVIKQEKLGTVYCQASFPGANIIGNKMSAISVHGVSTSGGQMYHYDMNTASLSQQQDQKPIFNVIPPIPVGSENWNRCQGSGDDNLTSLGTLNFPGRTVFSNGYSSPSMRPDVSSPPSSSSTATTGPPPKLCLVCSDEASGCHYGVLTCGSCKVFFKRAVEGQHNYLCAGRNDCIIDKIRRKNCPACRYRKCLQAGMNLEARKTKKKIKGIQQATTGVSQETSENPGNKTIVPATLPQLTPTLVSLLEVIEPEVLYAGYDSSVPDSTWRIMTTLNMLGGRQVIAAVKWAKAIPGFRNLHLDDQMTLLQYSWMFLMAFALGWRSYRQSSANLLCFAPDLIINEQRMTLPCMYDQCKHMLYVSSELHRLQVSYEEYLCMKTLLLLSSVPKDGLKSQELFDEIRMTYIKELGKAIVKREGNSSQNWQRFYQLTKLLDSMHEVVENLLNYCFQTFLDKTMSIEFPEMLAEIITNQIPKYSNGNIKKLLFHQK
Experimental: PMBCs were isolated from human buffy coats obtained in accordance with national legislation and following in-house protocol at Charles River Laboratories (Leiden, Netherlands). Test compounds and PBMCs were incubated with 10 ng/ml LPS (Sigma) overnight at 37°C in HEPES and Glutamax-containing RPMI medium supplemented with 0.5% human serum albumin (human PBMCs) and penicillin/streptomycin. TNF-alpha, IL-1-beta, and IL-6 were measured by MSD multiplex assay (Meso Scale Discovery).Compound concentration in dermis (Figure S4)

[3] = test system: TPA-induced skin inflammation; assay: TPA-induced skin inflammation in mice, efficacy; format: in vivo; conditions: TPA mouse model; for Ear biopsy weight ID50 (API concentration in formulation) / Ear biopsy weight Imax: topical, CV (%) in brackets
Experimental: Female Balb/c mice of 7 to 8 weeks old were obtained from Charles River, Germany and acclimatized for at least 1 week. Skin inflammation was induced by repeated topical application of TPA (20 μL of 0.01% TPA in acetone; 10 μL to each side of ear) on days 1, 3, 5, 8 and 10.
Treatments were performed by topical application of either vehicle (90% acetone, 10% transcutol), Treatments were applied twice daily on days 8, 9, 10, and once on day 11 (20–10 μL to each side of ear) with at least 5 h between the first and second treatment. TPA challenge on days 8 and 10 was performed at least 1 h after the first treatment. On day 11, animals were sacrificed 2 h after the last dosing. Blood was sampled by cardiac puncture from animals anaesthetized with isoflurane. Thereafter, ear biopsies were taken with a biopsy punch (8 mm diameter), weighed and stored at – 80 °C. Plasma osteocalcin levels were analyzed by EIA (rat-MID, IDS, UK). Effective inhibitory doses (ID50) were determined from a sigmoid I(max) model in Phoenix64, Pharsight, Certara. Therapeutic Index (TI) was calculated either as ID50 for spleen weight reduction or ID50 for blood osteocalcin concentrations, divided by ID50 for ear weight reduction.
RNA was extracted from biopsies and qPCR was performed using TaqMan gene expression assays (Fkbp5-Mm00487406_m1, Tsc22d3 (Gilz)-Mm00726417_s1, Actb-Mm00607939_s1, Pgk1-Mm00435617_m1, Tbp-Mm00446971_m1, Ubc-Mm02525934_g1). Gene expression of Fkbp5 and Tsc22d3 (Gilz) was normalized to the geometric mean of the reference genes Actb, Pgk1, Tbp and Ubc.

[4] = test system: LPS-induced TNF-alpha release in PBMCs; assay: TNF-alpha inhibition assay, pig PBMCs; format: cell-based; conditions: for EC50: geometric mean
Experimental: PMBCs were isolated from human buffy coats or animal whole blood (EDTA-treated). Buffy coats from anonymized healthy adult blood donors were obtained from the Blood Bank of the National University Hospital Copenhagen in accordance with national legislation. Whole blood from mice (obtained from Charles River) was sampled at the animal facility at LEO Pharma and whole blood from pigs was sourced from ScanTox. Test compounds and PBMCs were incubated with 1 µg/ml LPS (Sigma) overnight at 37 °C in HEPES and Glutamax-containing RPMI medium supplemented with either 0.5% human serum albumin (human PBMCs) or 10% fetal bovine serum (mouse and pig PBMCs) and penicillin/streptomycin. TNF-alpha was measured using AlphaLISA (Perkin Elmer).
IC50 of test compounds was determined by 10-point titrations in duplicates. IC50 values and other parameters were calculated by sigmoidal curve fitting in Assay Explorer.

Row | SMILES | FKBP5 Emax [1] | FKBP5 Relative ED50 (API concentration in dosing solution) [1] | Reversal by GR antagonist RU486 of inhibition of LPS-induced cytokine release [2] | Ear biopsy weight ID50 (API concentration in formulation) [3] | Ear biopsy weight Imax [3] | Emax ([4]; Sus scrofa, PBMC) [%] | EC50 ([4]; Sus scrofa, PBMC) [nM] | Higher dose needed to achieve similar level of FKBP5 induction as BMV [1] | Less potent than BMV, reduction in ear biopsy weight [3] [fold] | Less potent than CP, reduction in ear biopsy weight [3] | Inhibition of LPS-induced TNF-alpha release Emax [4] [%] | EC50 [4] [nM]
1 | CCCCC(=O)O[C@]1(C(=O)CO)[C@@H](C)C[C@H]2[C@@H]3CCC4=CC(=O)C=C[C@]4(C)[C@@]3(F)[C@@H](O)C[C@@]21C [BMV, Betamethasone Valerate] | 5.6 ± 4.9 fold to control | 9.5 ± 6.9 µg/mL | could be reversed in a concentration-dependent manner | 5.1 (73) µg/mL | 69 (17) % | 99 | 1.5 |  |  |  |  | 
2 | CCC(=O)O[C@]1(C(=O)CCl)[C@@H](C)C[C@H]2[C@@H]3CCC4=CC(=O)C=C[C@]4(C)[C@@]3(F)[C@@H](O)C[C@@]21C [CP, Clobetasol Propionate] | 6.9 ± 3.1^NS fold to control | 0.52 ± 0.06^NS µg/mL | could be reversed in a concentration-dependent manner | 1.5 (69) µg/mL | 67 (14) % | 95 | 0.38 |  |  |  |  | 
3 | C[C@H](NC(=O)[C@H]1CCCO1)[C@H](Oc1ccc(C(=O)O[C@H]2CCCN(C(=O)[C@H]3COC(=O)C3)C2)cc1)c1ccc(C2CC2)cc1 [LEO 134310] | 7.2 ± 2.7^NS fold to control | 270 ± 130 µg/mL | could be reversed in a concentration-dependent manner | 500 (250) µg/mL | 64 (39) % |  |  | approximately 30 fold | ~100 | approximately 300 fold | 96 | 3.2
